# Reference: patent US9084817B2, “Oral preparation comprising specific organic acid, and method for improvement in elution property and chemical stability of oral preparation” (TORAY INDUSTRIES, INC., priority 2007, dated 2015)
# Test: Water required to dissolve 1 g of organic acid at 20° C. (Japanese Pharmacopoeia solubility)
# Assay type: physicochemical
# Method: The organic acid 1 g of which requires not less than 30 mL of water to dissolve in at 20° C. refers to such an organic acid that 30 mL or more of water is required to dissolve 1 g of the organic acid within 30 minutes at 20±5° C. by vigorous shaking for 30 seconds each time at 5-minute intervals, in accordance with the description about solubility in the Japanese Pharmacopoeia, 15th Edition, General Notices, page A-13.
smiles,measurement,value
O=C(O)/C=C/C(=O)O [Fumaric acid],Water required to dissolve 1 g of organic acid in at 20° C.,≥ 100 mL
